Data reported in patent US20230355542A1, “DRUG-ELUTING DEVICE WITH GENETIC AND CHEMICAL THERAPEUTICS FOR TREATING OR PREVENTING VASCULAR ACCESS DYSFUNCTIONS” (priority 2022, published 2023).

Test system: neointima formation in the venous arms of AV fistulae
Experiment: systemic E2 in AV fistula model with experimentally induced chronic kidney disease
Format: in vivo
Details: systemic E2 100 ug/day, i.p; animals with experimentally induced CKD
Protocol: Systemic administration of estradiol, i.e., E2 (Molecular Weight: 272.38 Formula: […] Dissolves in absolute Ethanol) requires weekly therapeutic injections ([Study 1:10 weeks old+OVX (ovariectomy)+1 week+NX (nephrectomy)+4 weeks+AVF+4 weeks (with systemic E2 [100 ug/day, i.p])+4 weeks]) that are not applicable in real-life clinical settings. […] The nanoparticle membrane disclosed herein may locally deliver nanoparticles for the carotid artery ligation model and potentially for the AV Fistula injury site, replacing weekly injections, without the requirement for elevated systemic levels of E2. Nanoparticles may be successfully delivered and retained in layers of carotid artery tissue on a mouse model with significant enhancement.

In the case of `C[C@]12CC[C@@H]3c4ccc(O)cc4CC[C@H]3[C@@H]1CC[C@@H]2O` [estrogen, estradiol], the “effect on neointima formation” value was “inhibits neointima formation”.
